ChEMBL document CHEMBL1157463, “Interaction of methimazole with I2: X-ray crystal structure of the charge transfer complex methimazole-I2. implications for the mechanism of action of methimazole-based antithyroid drugs” (J Med Chem, 2008)

Assay: Antioxidant activity assessed as inhibition of lactoperoxidase-catalyzed oxidation of 2,2'-azinobis([…])
Format: functional

| IC50 | SMILES |
| --- | --- |
| 1.4 µM | Cn1cc[nH][c+]1SS[c+]1[nH]ccn1C.[O-][Cl+3]([O-])([O-])[O-].[O-][Cl+3]([O-])([O-])[O-] |
| 5.6 µM | Cn1ccnc1S [METHIMAZOLE] |
